Laboratory results published in the supplement of paper PMC10307832.

Experiments:
Experiment in all cases: relative viability (nuclei count vs DMSO), 5 days (fraction); higher = more cells survive
[1] = compound: C1=CC=C2C(=C1)N=C(S2)C(C#N)C3=NC(=NC=C3)NCCC4=CN=CC=C4 + C[C@]1(O)C[C@@H](c2nc(-c3ccc4ccc(-c5ccccc5)nc4c3)c3c(N)nccn32)C1 [Linsitinib] (partner 1 µM)
Outline: (§1)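 Lung cancer cell lines, seeded in 1536-well plates, were treated the following day by pin tool with a single drug or with five library-drug doses (not always all listed) in √10 steps on top of a fixed anchor-drug dose. Cells were fixed and nuclei stained in one step after 5 days, and nuclei were counted. Relative viability is the nuclei count for treated wells divided by that for vehicle wells, reported as medians of duplicate plates.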

[2] = compound: C1=CC=C2C(=C1)N=C(S2)C(C#N)C3=NC(=NC=C3)NCCC4=CN=CC=C4 + O=C(c1cc(Cc2n[nH]c(=O)c3ccccc23)ccc1F)N1CCN(C(=O)C2CC2)CC1 [Olaparib] (partner 8 µM)
Outline: as §1

NVP-TAE684 + Palbociclib = compound: COc1cc(N2CCC(N3CCN(C)CC3)CC2)ccc1Nc1ncc(Cl)c(Nc2ccccc2S(=O)(=O)C(C)C)n1 [NVP-TAE684] + CC(=O)c1c(C)c2cnc(Nc3ccc(N4CCNCC4)cn3)nc2n(C2CCCC2)c1=O [Palbociclib] (partner 0.5 µM)
Outline: as §1

Vandetanib + Phenformin = compound: COc1cc2/c(=N/c3ccc(Br)cc3F)nc[nH]c2cc1OCC1CCN(C)CC1 [Vandetanib] + N=C(N)NC(=N)NCCc1ccccc1 [Phenformin] (partner 250 µM)
Outline: as §1

Cell Line UMC-11 has a relative viability ([1]; first compound 0.005 µM) of 0.809, a relative viability ([1]; first compound 0.01581 µM) of 0.968 and a relative viability ([1]; first compound 0.05 µM) of 0.967. The relative viability ([1]; first compound 0.1581 µM) was 1.1, the relative viability ([1]; first compound 0.5 µM) was 0.917 and the relative viability ([2]; first compound 0.01581 µM) was 0.344. It also gave a relative viability ([2]; first compound 0.05 µM) of 0.349, a relative viability ([2]; first compound 0.1581 µM) of 0.366 and a relative viability ([2]; first compound 0.5 µM) of 0.382. The relative viability (NVP-TAE684 + Palbociclib; first compound 0.2 µM) was 0.344, the relative viability (NVP-TAE684 + Palbociclib; first compound 0.6325 µM) was 0.326 and the relative viability (NVP-TAE684 + Palbociclib; first compound 2 µM) was 0.26. For the same cell line, the relative viability (Vandetanib + Phenformin; first compound 0.02 µM) was 0.3, the relative viability (Vandetanib + Phenformin; first compound 0.06325 µM) was 0.308 and the relative viability (Vandetanib + Phenformin; first compound 0.2 µM) was 0.33. It also gave a relative viability (Vandetanib + Phenformin; first compound 0.6325 µM) of 0.289 and a relative viability (Vandetanib + Phenformin; first compound 2 µM) of 0.335.
